The values below come from US8846928B2 (Portola Pharmaceuticals, Inc., priority 2010, dated 2014).

The structures appear in SMILES notation.

The target in the assay is T1, full length active recombinant SYK enzyme (Homo sapiens, UniProt P43405).
T1 construct: full length active recombinant SYK enzyme (Millipore, Calif.); purchased Millipore
As to the kind of experiment: Inhibition of Syk tyrosine phosphorylation activity (LANCE TR-FRET kinase assay). The format is biochemical.
Turning to `NC(=O)c1cc(F)c(N[C@H]2[C@@H](N)CCCC2(F)F)nc1Nc1cccc(Cl)c1` [Example 388, 6-((1S,6S)-6-amino-2,2-difluorocyclohexylamino)-2-(3-chlorophenylamino)-5-fluoronicotinamide], the IC50 is 1 to 10 nM.

`Cn1ncc2c(Nc3nc(N[C@H]4[C@@H](N)CCCC4(F)F)c(F)cc3C(N)=O)cccc21` [Example 389, 6-((1S,6S)-6-amino-2,2-difluorocyclohexylamino)-5-fluoro-2-(1-methyl-1H-indazol-4-ylamino)nicotinamide]: the IC50 was 1 to 10 nM.

On to `CCn1ccc2c(Nc3nc(N[C@@H]4CCCC(F)(F)[C@@H]4N)c(F)cc3C(N)=O)cccc21` [Example 390, 6-((1R,2R)-2-amino-3,3-difluorocyclohexylamino)-2-(1-ethyl-1H-indol-4-ylamino)-5-fluoronicotinamide], for which the IC50 lay within 10 to 100 nM.

`CC(C)n1ccc2c(Nc3nc(N[C@@H]4CCCC(F)(F)[C@@H]4N)c(F)cc3C(N)=O)cccc21` [Example 391, 6-((1R,2R)-2-amino-3,3-difluorocyclohexylamino)-5-fluoro-2-(1-isopropyl-1H-indol-4-ylamino)nicotinamide]: the IC50 was in the range of 10 to 100 nM.

As for `CC(C)Cn1ccc2c(Nc3nc(N[C@@H]4CCCC(F)(F)[C@@H]4N)c(F)cc3C(N)=O)cccc21` [Example 392, 6-((1R,2R)-2-amino-3,3-difluorocyclohexylamino)-5-fluoro-2-(1-isobutyl-1H-indol-4-ylamino)nicotinamide], the IC50 was in the range of 100 to 1000 nM.

With `NC(=O)c1cc(F)c(N[C@@H]2CCCC[C@@H]2N)nc1Nc1csc2ncccc12` [Example 393], the IC50 is 1 to 10 nM.

On to `NC(=O)c1cc(F)c(N[C@@H]2CCCC[C@@H]2N)nc1Nc1csc2ccncc12` [Example 394, 6-((1R,2S)-2-aminocyclohexylamino)-5-fluoro-2-(thieno[3,2-c]pyridin-3-ylamino)nicotinamide], for which the IC50 is 10 to 100 nM.

Take `CN1C(=O)Cc2c(Nc3nc(N[C@@H]4CCCC(F)(F)[C@@H]4N)c(F)cc3C(N)=O)cccc21` [Example 395, 6-((1R,2R)-2-amino-3,3-difluorocyclohexylamino)-5-fluoro-2-(1-methyl-2-oxoindolin-4-ylamino)nicotinamide]: the IC50 was more than 1000 nM.

With `Cn1ccc2c(Nc3nc(N[C@@H]4CCCC[C@@H]4N)ccc3C(N)=O)cccc21` [Example 396, 6-((1R,2S)-2-aminocyclohexylamino)-2-(1-methyl-1H-indol-4-ylamino)nicotinamide], the IC50 was in the range of 1 to 10 nM.

`Cn1ccc2cc(Nc3nc(N[C@@H]4CCCC[C@@H]4N)ccc3C(N)=O)ccc21` [Example 397, 6-((1R,2S)-2-aminocyclohexylamino)-2-(1-methyl-1H-indol-5-ylamino)nicotinamide]: the concentration for half-maximal inhibition (IC50) was in the range of 1 to 10 nM.

Take `Cn1ncc2c(Nc3nc(N[C@@H]4CCCC[C@@H]4N)ccc3C(N)=O)cccc21` [Example 398, 6-((1R,2S)-2-aminocyclohexylamino)-2-(1-methyl-1H-indazol-4-ylamino)nicotinamide]: the IC50 lay in the range of 1 to 10 nM.

`Cn1ncc2cc(Nc3nc(N[C@@H]4CCCC[C@@H]4N)ccc3C(N)=O)ccc21` [Example 399, 6-((1R,2S)-2-aminocyclohexylamino)-2-(1-methyl-1H-indazol-5-ylamino)nicotinamide]: the IC50 lay within 1 to 10 nM.

Take `NC(=O)c1ccc(N[C@@H]2CCCC[C@@H]2N)nc1Nc1ccc2scnc2c1` [Example 400, 6-((1R,2S)-2-aminocyclohexylamino)-2-(benzo[d]thiazol-5-ylamino)nicotinamide]: the IC50 lay within 1 to 10 nM.

On to `NC(=O)c1ccc(N[C@@H]2CCCC[C@@H]2N)nc1Nc1cccc2ncsc12` [Example 401, 6-((1R,2S)-2-aminocyclohexylamino)-2-(benzo[d]thiazol-7-ylamino)nicotinamide], for which the IC50 fell in the range of 1 to 10 nM.

As for `NC(=O)c1ccc(N[C@@H]2CCCC[C@@H]2N)nc1Nc1csc2ncccc12` [Example 402, 6-((1R,2S)-2-aminocyclohexylamino)-2-(thieno[2,3-b]pyridin-3-ylamino)nicotinamide], the IC50 is less than 1 nM.

With `NC(=O)c1ccc(N[C@@H]2CCCC[C@@H]2N)nc1Nc1ccc2ncsc2c1` [Example 403, 6-((1R,2S)-2-aminocyclohexylamino)-2-(benzo[d]thiazol-6-ylamino)nicotinamide], the IC50 lay in the range of 1 to 10 nM.

With `NC(=O)c1ccc(N[C@@H]2CCCC[C@@H]2N)nc1Nc1ccc2nc(O)sc2c1` [Example 404, 6-((1R,2S)-2-aminocyclohexylamino)-2-(2-hydroxybenzo[d]thiazol-6-ylamino)nicotinamide], the IC50 was 1 to 10 nM.

For `NC(=O)c1cc(F)c(N[C@@H]2CCCC(F)(F)[C@@H]2N)nc1Nc1csc2ncccc12` [Example 405, 6-((1R,2R)-2-amino-3,3-difluorocyclohexylamino)-5-fluoro-2-(thieno[2,3-b]pyridin-3-ylamino)nicotinamide], the IC50 is 10 to 100 nM.

For the molecule `NC(=O)c1ccc(N[C@@H]2CCCC[C@@H]2N)nc1Nc1cnc2ccncc2c1` [Example 406, 2-(1,6-naphthyridin-3-ylamino)-6-((1R,2S)-2-aminocyclohexylamino)nicotinamide], the IC50 was in the range of 10 to 100 nM.

Take `NC(=O)c1ccc(N[C@@H]2CCCC[C@@H]2N)nc1Nc1cnc2cc[nH]c2c1` [Example 407]: the IC50 was in the range of 10 to 100 nM.

Regarding `NC(=O)c1cc(F)c(N[C@@H]2CCCC[C@@H]2N)nc1Nc1cc(F)c[n+]([O-])c1` [Example 408, 3-(6-((1R,2S)-2-aminocyclohexylamino)-3-carbamoyl-5-fluoropyridin-2-ylamino)-5-fluoropyridine 1-oxide], the IC50 was in the range of 100 to 1000 nM.

In the case of `NC(=O)c1ccc(N[C@@H]2CCCC[C@@H]2N)nc1Nc1cnn2ccccc12` [Example 419, 6-((1R,2S)-2-aminocyclohexylamino)-2-(pyrazolo[1,5-a]pyridin-3-ylamino)nicotinamide], the IC50 was in the range of 1 to 10 nM.

As to `NC(=O)c1cc(F)c(N[C@@H]2CCCC(F)(F)[C@@H]2N)nc1Nc1cnn2ccccc12` [Example 420, 6-((1R,2R)-2-amino-3,3-difluorocyclohexylamino)-5-fluoro-2-(pyrazolo[1,5-a]pyridin-3-ylamino)nicotinamide], the IC50 is 10 to 100 nM.

In the case of `NC(=O)c1cnc(N[C@@H]2CCCC[C@@H]2N)cc1Nc1cnn2ccccc12` [Example 421, 6-((1R,2S)-2-aminocyclohexylamino)-4-(pyrazolo[1,5-a]pyridin-3-ylamino)nicotinamide], the IC50 is more than 1000 nM.

As to `NC(=O)c1cnc(N[C@@H]2CCCC[C@@H]2N)cc1Nc1csc2ncccc12` [Example 422], the IC50 is more than 1000 nM.

On to `CC[C@@H](Nc1nc(Nc2csc3ncccc23)c(C(N)=O)cc1F)C(N)=O` [Example 423, (R)-6-(1-amino-1-oxobutan-2-ylamino)-5-fluoro-2-(thieno[2,3-b]pyridin-3-ylamino)nicotinamide], for which the IC50 was in the range of 10 to 100 nM.

Consider `CC[C@@H](Nc1nc(Nc2cnn3ccccc23)c(C(N)=O)cc1F)C(N)=O` [Example 424, (R)-6-(1-amino-1-oxobutan-2-ylamino)-5-fluoro-2-(pyrazolo[1,5-a]pyridin-3-ylamino)nicotinamide], for which the IC50 lay in the range of 10 to 100 nM.

Take `CC[C@@H](Nc1ccc(C(N)=O)c(Nc2csc3ncccc23)n1)C(N)=O` [Example 425, (R)-6-(1-amino-1-oxobutan-2-ylamino)-2-(thieno[2,3-b]pyridin-3-ylamino)nicotinamide]: the IC50 lay within 10 to 100 nM.

As a reminder, the IC50 is the concentration needed to halve the response being measured.
